According to paper PMC11941704 (Current Issues in Molecular Biology, 2025):
Several values for one entry are separate records, joined by “and”; a condition that tells them apart may be missing. Identical values can stand only once. Like-named read-outs stand apart in the source and are kept apart here.

What was measured:
SARS-CoV-2 main protease [1] = molecular target: T1, SARS-CoV-2 main protease (Severe acute respiratory syndrome coronavirus 2, UniProt P0DTD1); conditions: read-out: IC50 Value SARS-CoV-2 Main Protease; cited from earlier work
[2] = tested on: SARS-CoV-2 spike protein–human ACE2 interaction; format: binding, SARS-CoV-2 / human
[3] = tested on: C. perfringens neuraminidase; format: biochemical, Clostridium perfringens; conditions: for IC50: read-out: IC50 Value C. perfringen Neuraminidase
SARS-CoV-2 main protease [4] = molecular target: T1, SARS-CoV-2 main protease; assay: biochemical; format: biochemical; conditions: for IC50: IC50 Value SARS-CoV-2 Main Protease

SMILES	IC50 (SARS-CoV-2 main protease [1])	Potency Index, SARS-CoV-2 spike protein [2]	Ratio, SARS-CoV2 spike protein [2]	Potency Index*, bacterial neuraminidase, compared to std influenza A [3]	Potency Index, bacterial (C. perfringens) neuraminidase [3]	IC50 [3]	Potency Index, SARS-CoV-2 main protease (SARS-CoV-2 main protease [4])	% Inhibition SARS-CoV-2 Spike Protein–Human ACE2 Interaction [2]	inhibition at 100 µg/mL (SARS-CoV-2 main protease [4])	IC50 (SARS-CoV-2 main protease [4])	% Inhibition C. perfringen Neuraminidase [3]
CCCCCc1cc(O)c2c(c1)OC(C)(C)[C@@H]1CCC(C)=C[C@@H]21 [THC, tetrahydrocannabinol, reference compound]	16.2 µM	72.94	1.73	20.30	1.85	~20.3 µM and 20.3 µM	38.64				
CCCCCc1cc(O)c2c(c1)OC(C)(CCC=C(C)C)C=C2 (centres unmarked) [CBC, cannabichromene]		4.99	1.05	56.89	5.18	56.9 µM	100	95.25 (± 4.54) %	75%		
CCCCCc1cc(O)c(C/C=C(\C)CCC=C(C)C)c(O)c1 [CBG, cannabigerol]		2.46	1.02	6.92	0.63	6.9 µM and 6.92 µM		97.60 (± 4.16) %	> 80%	5.68 µM	
CCCCCc1cc(O)c2c(c1)oc1c(C)ccc(C(C)C)c12 [CBF, cannabifuran]			1.01				100	99.22 (± 1.36) %	65.3%		
C=C(C)[C@@H]1CCC(C)=C[C@H]1c1c(O)cc(CCCCC)cc1O [CBD, cannabidiol, reference compound]	1.86 µM	77.62	1.78	4.53	0.41	4.5 µM and 4.53 µM	4.43				
CCCCCc1cc(O)c2c(c1)OC(C)(C)c1ccc(C)cc1-2 [CBN, cannabinol]		39.18	1.39	100.00	100		100				34.87 (± 3.08) %
C=C(C)C1CCC(C)(O)C2Oc3cc(CCCCC)cc(O)c3C12 (centres unmarked) [CBE, cannabielsoin]		35.75	1.36				100		80.3%		
COc1cc(O)c2c(c1)O[C@H](c1ccccc1)CC2=O [pinostrobin, reference compound]								100%			
O=c1c(O)c(-c2ccc(O)c(O)c2)oc2cc(O)cc(O)c12 [quercetin, reference compound]						~11 µM and 11 µM					
CCCCCc1cc(O)c2c(c1)OC1(C)CCC3C1C2C3(C)C (centres unmarked) [CBL, cannabicyclol]		54.53	1.55	96.12	8.75	96.1 µM			> 80%	5.67 µM	
